The values below come from paper PMC10766962 (Nature Communications, 2024).

In data set [1] the target is SARS-CoV-2 5-helix bundle (5-HB) protein (Severe acute respiratory syndrome coronavirus 2, UniProt P0DTC2). Kind of data set: biochemical. The class given is binding.

Positions of bridges follow the written chain, without caps; N, C: chain ends. Non-standard residues stand in square brackets, D forms with d. Residues, ends and D or L forms follow the SMILES beside them. Groups on a side chain read outwards from the residue. *: point of attachment. Acetyl(2-S-cholesteryl) = CC(C)CCC[C@@H](C)[C@H]1CC[C@H]2[C@@H]3CC=C4C[C@@H](SCC(=O)*)CC[C@]4(C)[C@H]3CC[C@]12C; R8 = C=CCCCCCC[C@@](C)(N)C(=O)O; PEG4 = NCCOCCOCCOCCOCCC(=O)O; S5 = C=CCCC[C@](C)(N)C(=O)O; Nle = CCCC[C@H](N)C(=O)O

`CC[C@H](C)[C@H](NC(=O)CNC(=O)[C@H](CO)NC(=O)[C@@H](NC(=O)[C@H](CC(=O)O)NC(C)=O)[C@@H](C)CC)C(=O)N[C@@H](CC(N)=O)C(=O)N[C@@H](C)C(=O)N[C@@H](CO)C(=O)N[C@H](C(=O)N[C@H](C(=O)N[C@@H](CC(N)=O)C(=O)N[C@H](C(=O)N[C@]1(C)CCCCCCC=CCCC[C@@](C)(C(=O)N[C@@H](CCC(=O)O)C(=O)N[C@H](C(=O)N[C@@H](C)C(=O)N[C@@H](CCCCN)C(=O)N[C@@H](CC(N)=O)C(=O)N[C@@H](CC(C)C)C(=O)N[C@@H](CC(N)=O)C(=O)N[C@@H](CCC(=O)O)C(=O)N[C@@H](CO)C(=O)N[C@@H](CC(C)C)C(=O)N[C@H](C(=O)N[C@@H](CC(=O)O)C(=O)N[C@@H](CC(C)C)C(=O)N[C@@H](CCC(N)=O)C(=O)N[C@@H](CCC(=O)O)C(=O)N[C@@H](CC(C)C)C(=O)NCC(=O)N[C@@H](CCCCN)C(N)=O)[C@@H](C)CC)C(C)C)NC(=O)[C@H](CC(C)C)NC(=O)[C@H](CCCNC(=N)N)NC(=O)[C@H](CC(=O)O)NC(=O)[C@H]([C@@H](C)CC)NC(=O)[C@H](CCC(=O)O)NC(=O)[C@H](CCCCN)NC1=O)[C@@H](C)CC)C(C)C)C(C)C` [RQ-01 (- linker-lipid)]: the “improvement of affinity compared to the unstapled HR2 peptide” value in data set [1] stood at 7.5 fold.

For `CC[C@H](C)[C@H](NC(=O)[C@H](C)NC(=O)[C@H](CS)NC(=O)[C@H](CC(=O)O)NC(=O)[C@@H]1CCCN1C(=O)CNC(=O)[C@H](CC(C)C)NC(=O)[C@@H](NC(=O)[C@H](Cc1c[nH]cn1)NC(=O)[C@H](CS)NC(=O)[C@@H](NC(C)=O)[C@@H](C)O)[C@@H](C)CC)C(=O)N[C@@H](CCC(=O)O)C(=O)N1CCC[C@H]1C(=O)N[C@@H](Cc1c[nH]cn1)C(=O)N[C@@H](CC(=O)O)C(=O)N[C@@H](Cc1c[nH]c2ccccc12)C(=O)N[C@H](C(=O)N[C@]1(C)CCCCCCC=CCCC[C@@](C)(C(=O)N[C@@H](CCC(N)=O)C(=O)N[C@H](C(=O)N[C@H](C(=O)N[C@@H](Cc2c[nH]cn2)C(=O)N[C@@H](CC(=O)O)C(=O)N[C@@H](Cc2ccccc2)C(=O)N[C@H](C(=O)N[C@@H](CCCCNC(=O)CCOCCOCCOCCOCCNC(=O)CS[C@H]2CC[C@@]3(C)C(=CC[C@H]4[C@@H]5CC[C@H]([C@H](C)CCCC(C)C)[C@@]5(C)CC[C@@H]43)C2)C(N)=O)C(C)C)[C@@H](C)CC)[C@@H](C)CC)NC(=O)[C@H]([C@@H](C)CC)NC(=O)[C@H](CCCCN)NC(=O)[C@H](CC(=O)O)NC(=O)[C@H]([C@@H](C)O)NC(=O)[C@H]([C@@H](C)CC)NC(=O)[C@H](CCC(=O)O)NC1=O)[C@@H](C)O` [SLI-EBOV] (Ac-TCHILGPDCAIEPHDWT[R8]EITDKI[S5]QIIHDFVK([PEG4-Acetyl(2-S-cholesteryl)])-NH2; staple 18-25), the cytotoxicity entry in the data set on HeLa cells was “no cytotoxicity”.

In the case of `CCCC[C@H](NC(=O)[C@H](CO)NC(=O)[C@H](CO)NC(=O)[C@@H](NC(=O)[C@H](CCC(N)=O)NC(=O)[C@H](CO)NC(=O)[C@H](CO)NC(=O)[C@@H](NC(=O)[C@H](CC(=O)O)NC(C)=O)[C@@H](C)CC)[C@@H](C)CC)C(=O)N[C@@H](CC(N)=O)C(=O)N[C@@H](CCC(N)=O)C(=O)N[C@@H](CO)C(=O)N[C@@H](CC(C)C)C(=O)N[C@]1(C)CCCCCCC=CCCC[C@@](C)(C(=O)N[C@@H](CCC(=O)O)C(=O)N[C@@H](C)C(=O)N[C@@H](CCC(N)=O)C(=O)N[C@@H](CCCCN)C(=O)N[C@H](C(=O)N[C@@H](CC(C)C)C(=O)N[C@@H](CC(=O)O)C(=O)N[C@H](C(=O)N[C@H](C(=O)N[C@@H](CCCCNC(=O)CCOCCOCCOCCOCCNC(=O)CS[C@H]2CC[C@@]3(C)C(=CC[C@H]4[C@@H]5CC[C@H]([C@H](C)CCCC(C)C)[C@@]5(C)CC[C@@H]43)C2)C(N)=O)C(C)C)[C@@H](C)O)[C@@H](C)CC)NC(=O)[C@H]([C@@H](C)CC)NC(=O)[C@H](Cc2ccc(O)cc2)NC(=O)[C@H](CC(=O)O)NC(=O)[C@H](CCCCN)NC(=O)[C@H](CO)NC(=O)[C@H](CCC(N)=O)NC1=O` [SLI-NIPV] (Ac-DISSQISS[Nle]NQSL[R8]QSKDYI[S5]EAQKILDTVK([PEG4-Acetyl(2-S-cholesteryl)])-NH2; staple 14-21), the cytotoxicity result with 293T cells was “no cytotoxicity”.
